According to article PMC8869358, “High-Throughput Chemical Screening and Structure-Based Models to Predict hERG Inhibition” (Biology, 2022):
Counter-ions that a name gives are not always drawn.

These compounds were tested against hERG (Homo sapiens, UniProt Q12809) (assay: cell-based). Details: (-LOG10(IC50), µM).
Sequence of hERG (Q12809 whole entry): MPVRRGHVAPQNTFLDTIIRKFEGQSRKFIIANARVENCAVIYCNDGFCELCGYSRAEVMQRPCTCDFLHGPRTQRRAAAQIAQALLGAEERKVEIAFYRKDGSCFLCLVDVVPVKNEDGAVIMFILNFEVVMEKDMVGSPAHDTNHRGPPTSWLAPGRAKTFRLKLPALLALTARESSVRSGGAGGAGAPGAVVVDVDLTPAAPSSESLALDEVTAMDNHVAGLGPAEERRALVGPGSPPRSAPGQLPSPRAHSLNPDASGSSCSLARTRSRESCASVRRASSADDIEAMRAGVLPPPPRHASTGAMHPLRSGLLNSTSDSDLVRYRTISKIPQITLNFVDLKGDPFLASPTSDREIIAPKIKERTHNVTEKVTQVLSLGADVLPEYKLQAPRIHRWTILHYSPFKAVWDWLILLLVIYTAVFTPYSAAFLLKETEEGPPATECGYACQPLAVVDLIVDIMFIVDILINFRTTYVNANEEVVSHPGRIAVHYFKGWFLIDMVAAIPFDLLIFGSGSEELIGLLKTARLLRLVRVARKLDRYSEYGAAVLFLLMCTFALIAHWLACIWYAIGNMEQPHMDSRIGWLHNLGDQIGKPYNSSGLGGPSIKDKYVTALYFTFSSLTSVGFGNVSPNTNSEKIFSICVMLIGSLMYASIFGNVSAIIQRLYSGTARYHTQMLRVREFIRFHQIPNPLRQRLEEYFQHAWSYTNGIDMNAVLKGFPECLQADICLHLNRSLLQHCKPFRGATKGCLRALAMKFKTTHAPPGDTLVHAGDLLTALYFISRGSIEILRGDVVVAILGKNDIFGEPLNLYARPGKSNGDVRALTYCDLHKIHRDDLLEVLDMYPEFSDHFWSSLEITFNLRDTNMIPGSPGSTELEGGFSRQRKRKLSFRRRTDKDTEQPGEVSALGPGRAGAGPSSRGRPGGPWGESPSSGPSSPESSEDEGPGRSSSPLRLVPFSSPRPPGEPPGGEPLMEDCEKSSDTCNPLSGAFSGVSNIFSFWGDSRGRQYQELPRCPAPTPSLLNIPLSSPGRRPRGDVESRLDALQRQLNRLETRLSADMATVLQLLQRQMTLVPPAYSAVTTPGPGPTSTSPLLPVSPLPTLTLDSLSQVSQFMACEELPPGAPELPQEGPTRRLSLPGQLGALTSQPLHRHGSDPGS

| Structure (SMILES) | IC50 [µM] |
| --- | --- |
| Clc1ccc(CCC(Cn2ccnc2)Sc2c(Cl)cccc2Cl)cc1 (stereo not drawn) [Butoconazole nitrate] | 5.35 |
| O=S(=O)(C(Cl)(Cl)Cl)C(Cl)(Cl)Cl [Bis(trichloromethyl)sulfone] | 18.8 |
| CCOCCn1c(N2CCCN(C)CC2)nc2ccccc21 [Emedastine difumarate] | 6.24 |
| Fc1ccc(C(c2ccc(F)cc2)N2CCNCC2)cc1 [1-(Bis(4-fluorophenyl)methyl)piperazine] | 19.7 |
| CC1(CN2CCC(n3c(=O)[nH]c4ccccc43)CC2)OCc2ccccc2-n2cccc21 (stereo not drawn) [Zaldaride] | 8.82 |
| CCCCCCC(C)OC(=O)COc1nc(F)c(Cl)c(N)c1Cl (stereo not drawn) [Fluroxypyr-meptyl] | 38.9 |
| CN(c1nccc(=O)[nH]1)C1CCN(c2nc3ccccc3n2Cc2ccc(F)cc2)CC1 [Mizolastine] | 2.21 |
| CC(C)C(=O)OCc1cccc(OC(=O)[C@@H]2N3C(=O)[C@@H](NC(=O)Cc4ccccc4)[C@H]3SC2(C)C)c1 [Tobicillin] | 20.5 |
| CCOc1ccc2nc(N)sc2c1 [2-Amino-6-ethoxybenzothiazole] | 43.3 |
| O=C(OCCN1CCOCC1)c1cccnc1Nc1cccc(C(F)(F)F)c1 [Morniflumate] | 10.3 |
| OC(c1ccc(Cl)cc1)(c1ccc(Cl)cc1)c1cccnc1 [Parinol] | 20.3 |
| O=C1C2(Cl)C3(Cl)C4(Cl)C(Cl)(Cl)C5(Cl)C3(Cl)C1(Cl)C5(Cl)C24Cl (stereo not drawn) [Kepone] | 12.7 |
| NC(=O)C1(N2CCCCC2)CCN(CCCN2c3ccccc3CCc3ccc(Cl)cc32)CC1 [Clocapramine] | 1.45 |
| O=C1Cc2ccccc2N1c1c(Cl)cccc1Cl [1-(2,6-Dichlorophenyl)-2-indolinone] | 21.9 |
| COc1ccc2c(c1OC)C(=O)O[C@H]2[C@@H]1c2cc3c(cc2CCN1C)OCO3 [(1S,9R)-beta-Hydrastine] | 19 |
| CCN(C(=O)c1cc(C)cc(OC[C@H](C)Nc2ccncc2)c1)C(C)C [GW473178E methyl benzene sulphonic acid] | 15.9 |
| CCOC(=O)C(O)(c1ccc(Cl)cc1)c1ccc(Cl)cc1 [Chlorobenzilate] | 33.7 |
| CCCCCCCCCCCCCC[n+]1ccccc1 [Tetradecylpyridinium bromide] | 5.49 |
| CCc1ccc(C(c2ccc(CC)cc2)C(Cl)Cl)cc1 [p,p'-Ethyl-DDD] | 17.7 |
| CN(C)[C@@H](CCOc1cccc2ccccc12)c1ccccc1 [Dapoxetine] | 7.56 |
| CSc1ccc(Oc2ccc(S(N)(=O)=O)cc2CN(C)C)cc1C [UK-416244] | 8.71 |

| Structure (SMILES) | IC50 [µM] |
| --- | --- |
| CCc1cc(SCc2sc(-c3ccc(C(F)(F)F)cc3)nc2CN2CCN(c3ccc(OC)cc3)CC2)ccc1OCC(=O)O [PharmaGSID_47315] | 3.34 |
| CC[C@]12CCCN3CCc4c(n(c5ccccc45)[C@@](O)(C(=O)OC)C1)[C@@H]32 [Vincamine] | 1.33 |
| Oc1ccc(Cl)cc1Cc1cc(Cl)ccc1O [Dichlorophen] | 27 |
| CCOC(=O)COc1cc(-n2ncc(C(F)(F)F)c(C)c2=O)c(F)cc1Cl [Flufenpyr-ethyl] | 30.9 |
| CN1C[C@H](C(=O)N[C@]2(C)O[C@@]3(O)[C@@H]4CCCN4C(=O)[C@H](Cc4ccccc4)N3C2=O)C[C@@H]2c3cccc4[nH]cc(c34)C[C@H]21 [Dihydroergotamine] | 19 |
| Oc1ccc(C(c2ccc(O)cc2)(C(F)(F)F)C(F)(F)F)cc1 [Bisphenol AF] | 43.4 |
| O=C1CCCC=CCCCCCCCCCC1 [5-Cyclohexadecen-1-one] | 29.2 |
| O=C(CCCN1CCC2(CC1)C(=O)NCN2c1ccccc1)c1ccc(F)cc1 [Spiperone] | 1.76 |
| CN1C2CCC(C)(C)C1CC(OC(=O)C(O)(c1cccs1)c1cccs1)C2 (stereo not drawn) [Mazaticol] | 21.3 |
| O=[N+]([O-])C1(Br)COCOC1 [5-Bromo-5-nitro-1,3-dioxane] | 51.9 |
| ClC1=C(Cl)[C@]2(Cl)[C@@H]3[C@@H](Cl)[C@H]4O[C@H]4[C@@H]3C1(Cl)C2(Cl)Cl [Heptachlor epoxide B] | 38.9 |
| CC1CCC(C(C)C)C(OC(=O)c2ccccc2N)C1 (stereo not drawn) [Menthyl anthranilate] | 30.5 |
| Cc1[nH]nc2c1N=C(c1ccccc1Cl)c1cc([N+](=O)[O-])ccc1N2 [PharmaGSID_48505] | 11.4 |
| O=C(c1ccccc1)C(Cl)Cl [2,2-Dichloro-1-phenylethanone] | 36 |
| O=C1c2ccccc2C(=O)N1SC(Cl)(Cl)Cl [Folpet] | 27.5 |
| Cc1ccc(N(SC(F)(Cl)Cl)S(=O)(=O)N(C)C)cc1 [Tolylfluanid] | 19.5 |
| CC(C)(C)c1cc(C(C)(C)C)c(O)c(C(C)(C)C)c1 [2,4,6-Tris(tert-butyl)phenol] | 17.4 |
| CN(Cc1cc(Br)cc(Br)c1N)C1CCCCC1 [Bromhexine hydrochloride] | 12.5 |
| Cc1cccc(Nc2ccccc2)c1 [3-Methyl-N-phenylaniline] | 52.9 |
| CCCCN(CCCC)CCCOC(=O)c1ccc(N)cc1 [Butacaine] | 14.5 |
| COc1ccc(CN(CCN(C)C)c2ccccn2)cc1 [Pyrilamine maleate] | 20.9 |

| Structure (SMILES) | IC50 [µM] |
| --- | --- |
| CC(Cc1ccc(C(C)(C)C)cc1)CN1C[C@@H](C)O[C@@H](C)C1 (stereo partly drawn) [(2R,6S)-Fenpropimorph] | 15.5 |
| CCCCOC(=O)C(C)Oc1ccc(Oc2ccc(C(F)(F)F)cn2)cc1 (stereo not drawn) [Fluazifop-butyl] | 23.2 |
| O=C(NC1CCN(CCc2c[nH]c3ccccc23)CC1)c1ccccc1 [Indoramin hydrochloride] | 4.42 |
| CC(C)N1C(=O)N(c2ccccc2)CS/C1=N\C(C)(C)C [Buprofezin] | 19.5 |
| COc1ccc(CN(CCN(C)C)c2ccccn2)cc1 [Pyrilamine] | 27.4 |
| COc1ccnc(C[S+]([O-])c2nc3ccc(OC(F)F)cc3[nH]2)c1OC (stereo not drawn) [Pantoprazole sodium] | 49.3 |
| CN(C)c1ccc(C(=C2C=CC(=[N+](C)C)C=C2)c2ccccc2)cc1 [Malachite green] | 4.25 |
| CC(C)(C)C(O)/C(=C\c1ccc(Cl)cc1Cl)n1cncn1 (stereo not drawn) [Diniconazole] | 61.6 |
| COC(=O)C1=C(C)NC(C)=C(C(=O)OC(C)(C)CN(C)CCC(c2ccccc2)c2ccccc2)C1c1cccc([N+](=O)[O-])c1 (stereo not drawn) [Lercanidipine hydrochloride] | 3.25 |
| COc1ccc2c(c1OC)C(=O)O[C@@H]2[C@H]1c2cc3c(cc2CCN1C)OCO3 [Hydrastine] | 20.8 |
| O=C(C=Cc1ccccc1)OCCCc1ccccc1 [3-Phenylpropyl cinnamate] | 19.5 |
| Nc1ccc(Oc2ccc(Cl)cc2)cc1 [4-Chloro-4'-aminodiphenyl ether] | 41.1 |
| CCCCCCOC(=O)c1ccccc1O [Hexyl salicylate] | 18.8 |
| CC(C)=CC1C(C(=O)OCN2C(=O)C3=C(CCCC3)C2=O)C1(C)C (stereo not drawn) [Tetramethrin] | 40.4 |
| CCn1c2ccccc2c2cc([N+](=O)[O-])ccc21 [9-Ethyl-3-nitro-9H-carbazole] | 28.6 |
| CCCCN1C(=O)[C@@H]([C@H](O)C2CCCCC2)NC(=O)C12CCN(Cc1ccc(Oc3ccc(C(=O)O)cc3)cc1)CC2 [Aplaviroc hydrochloride] | 17.4 |
| Cc1c(Cl)c(=O)oc2cc(OP(=O)(OCCCl)OCCCl)ccc12 [Haloxon] | 22.1 |
| O=C1C=CC(=O)N1c1cccc(N2C(=O)C=CC2=O)c1 [N,N'-1,3-Phenylenedimaleimide] | 49 |
| Clc1ccccc1C(c1ccccc1)(c1ccccc1)n1ccnc1 [Clotrimazole] | 25.5 |
| COC(=O)C1=C(C)NC(C)=C(C(=O)O[C@@H]2CCCN(Cc3ccccc3)C2)[C@@H]1c1cccc([N+](=O)[O-])c1 (racemic) [rac Benidipine hydrochloride] | 12.5 |
| CCCCCCCCCCCC[N+](C)(C)C [Dodecyltrimethylammonium chloride] | 18 |

| Structure (SMILES) | IC50 [µM] |
| --- | --- |
| CCCCCCCC[N+](C)(CCCCCCCC)CCCCCCCC [Methyltrioctylammonium chloride] | 0.616 |
| CCCC[P+](CCCC)(CCCC)CCCC [Tetrabutylphosphonium chloride] | 23.2 |
| CCOC(=O)COc1ccc2c(c1)CC(NCC(O)c1cccc(Cl)c1)CC2 (stereo not drawn) [SR58611] | 1.45 |
| CC(C)Cc1ccc(C(C)C(=O)OCc2ccccn2)cc1 (stereo not drawn) [Ibuprofen piconol] | 16.3 |
| CC(=O)OCCN(CCOC(C)=O)c1ccc(/N=N/c2ccc([N+](=O)[O-])cc2C#N)cc1 [Disperse Red 82] | 24.5 |
| C=C(Cl)CSC(=S)N(CC)CC [Sulfallate] | 51.5 |
| CCC(C)(NC(=O)c1cc(Cl)c(C)c(Cl)c1)C(=O)CCl (stereo not drawn) [Zoxamide] | 39.1 |
| C=CC(=O)OCC1CC2CC1C1CCC(COC(=O)C=C)C21 (stereo not drawn) [Tricyclodecanedimethanol diacrylate] | 36 |
| CCCCCC1Nc2cc(C(F)(F)F)c(S(N)(=O)=O)cc2S(=O)(=O)N1 (stereo not drawn) [Penflutizide] | 23 |
| CN1C[C@H](C(=O)N[C@]2(C)O[C@@]3(O)[C@@H]4CCCN4C(=O)[C@H](Cc4ccccc4)N3C2=O)C=C2c3cccc4[nH]cc(c34)C[C@H]21 [Ergotamine D-tartrate] | 11.9 |
| O=S1(=O)OC[C@@H]2[C@H](CO1)[C@]1(Cl)C(Cl)=C(Cl)[C@@]2(Cl)C1(Cl)Cl [Endosulfan sulfate] | 16.1 |
| CCc1ccc2c(c1)C(=O)c1ccccc1C2=O [2-Ethylanthraquinone] | 24.5 |
| CN(C)c1ccc(C(=C2C=CC(=[N+](C)C)C=C2)c2ccccc2)cc1 [Malachite green oxalate] | 3.51 |
| CCCCC(CC)COC(=O)C(C#N)=C(c1ccccc1)c1ccccc1 (stereo not drawn) [2-Ethylhexyl-2-cyano-3,3-diphenylacrylate] | 18.4 |
| O=C1NCN(c2ccccc2)C12CCN(CCCOc1ccc(F)cc1)CC2 [AMI-193] | 0.786 |
| CCCc1ccc(OCC(=O)N2CCN(C(=O)COc3ccc(CCC)cc3OC)CC2)c(OC)c1 [Simetride] | 1.4 |
| CCOP(=S)(OCC)Oc1ccc([N+](=O)[O-])cc1 [parathion] | 45.9 |
| CCN1CCCC1CNC(=O)c1cc(S(N)(=O)=O)ccc1OC (stereo not drawn) [Sulpiride] | 34.7 |
| CCOP(=S)(OCC)SCn1c(=O)oc2cc(Cl)ccc21 [Phosalone] | 23.5 |
| O=C(CCCN1CCN(c2ccccn2)CC1)c1ccc(F)cc1 [Azaperone] | 4.77 |
| CSCCCN=C=S [3-(Methylthio)propyl isothiocyanate] | 36.7 |
